Here are results for one substance from US10549237B2, “Regenerable draw solute for osmotically driven processes” (NANYANG TECHNOLOGICAL UNIVERSITY, priority 2015, dated 2020).

A short description of data set [1]: Residual Na2HPO4 concentration after acetone extractive crystallization of the supernatant (Example 2). It counts as physicochemical. The following applies: acetone added to 10 wt % supernatant; lowest value, depends on amount of solvent. On the procedure:
[…]. There is an instantaneous phase separation resulting in precipitation of solid crystal hydrates upon acetone addition. The mixture was allowed to settle for 1 hour before the solid crystals are removed. […] The Na2HPO4 concentration in water/acetone mixtures were then calculated accordingly. All the measurements were repeated for three times.

A short description of data set [2]: Water flux during forward osmosis in a cross-flow setup (Example 3, FIG. 2). The following applies: 40 wt % draw solution. The protocol:
Water flux during FO was measured in a cross-flow setup by monitoring the feed solution weight decrease with time. The method is adapted from a reported standard procedure. The initial weight of feed solution and draw solution was 500 g and 200 g, respectively. The effective membrane area was 58.5 cm^2. The feed and draw solutions flew in co-current in order to reduce the tension stress on membrane. The flow rate was 400 ml/min and plastic spacers were used in both feed and draw sides to reduce concentration polarization. During the tests, the temperature in draw solution and feed solution were monitored to be 50±1° C. and 46±2° C. respectively. The concentrations of feed solution and draw solution were kept virtually constant during the measurement. Water flux measurements were conducted in both FO mode (selective membrane layer facing towards feed solution) and PRO mode (selective layer facing towards draw solution). The water flux was calculated by: Flux=Δm/(A*t) (1)
Where Δm is the value of feed solution weight decrease (kg), t is the corresponding measurement time (h) and A is the membrane area in square meters. Therefore, the flux is in unit of liter per square meter per hour (LMH) if the density of water is assumed to be 1 kg/L.

Disodium phosphate: the “residual Na2HPO4 concentration after extractive crystallization” value in data set [1] turned out to be 0.28 wt %. The water flux in data set [2] (feed 3.5 wt % NaCl (artificial seawater), FO mode, draw 50±1° C., feed 46±2° C.) is given as 8 LMH; in data set [2] (feed 3.5 wt % NaCl (artificial seawater), PRO mode, draw 50±1° C., feed 46±2° C.), 19 LMH; in data set [2] (feed 17 wt % NaCl), “about 1.0 LMH”.
